Values quoted from earlier work, collected in US8389574B2, “Method useful for the prevention of type 2 diabetes and its complications in pre-diabetic patients with insulin resistance” (Sigma-Tau Industrie Farmaceutiche Riunite S.p.A., priority 2007, dated 2013).

Details: DPP participants at high risk for IGT and type 2 diabetes; over 3 years

Question: With CN(C)C(=N)N=C(N)N [metformin] as the compound, how does the “Reduction of risk of getting type 2 diabetes” value read?
Answer: The value was 31%.
